Consider 22 compounds from ChEMBL document CHEMBL1201862, “PubChem BioAssay data set” (2004).

Experiment [1] addresses T1, Replicative DNA helicase DnaB (Mycobacterium tuberculosis, UniProt P9WMR3).
T1 sequence (P9WMR3 whole entry): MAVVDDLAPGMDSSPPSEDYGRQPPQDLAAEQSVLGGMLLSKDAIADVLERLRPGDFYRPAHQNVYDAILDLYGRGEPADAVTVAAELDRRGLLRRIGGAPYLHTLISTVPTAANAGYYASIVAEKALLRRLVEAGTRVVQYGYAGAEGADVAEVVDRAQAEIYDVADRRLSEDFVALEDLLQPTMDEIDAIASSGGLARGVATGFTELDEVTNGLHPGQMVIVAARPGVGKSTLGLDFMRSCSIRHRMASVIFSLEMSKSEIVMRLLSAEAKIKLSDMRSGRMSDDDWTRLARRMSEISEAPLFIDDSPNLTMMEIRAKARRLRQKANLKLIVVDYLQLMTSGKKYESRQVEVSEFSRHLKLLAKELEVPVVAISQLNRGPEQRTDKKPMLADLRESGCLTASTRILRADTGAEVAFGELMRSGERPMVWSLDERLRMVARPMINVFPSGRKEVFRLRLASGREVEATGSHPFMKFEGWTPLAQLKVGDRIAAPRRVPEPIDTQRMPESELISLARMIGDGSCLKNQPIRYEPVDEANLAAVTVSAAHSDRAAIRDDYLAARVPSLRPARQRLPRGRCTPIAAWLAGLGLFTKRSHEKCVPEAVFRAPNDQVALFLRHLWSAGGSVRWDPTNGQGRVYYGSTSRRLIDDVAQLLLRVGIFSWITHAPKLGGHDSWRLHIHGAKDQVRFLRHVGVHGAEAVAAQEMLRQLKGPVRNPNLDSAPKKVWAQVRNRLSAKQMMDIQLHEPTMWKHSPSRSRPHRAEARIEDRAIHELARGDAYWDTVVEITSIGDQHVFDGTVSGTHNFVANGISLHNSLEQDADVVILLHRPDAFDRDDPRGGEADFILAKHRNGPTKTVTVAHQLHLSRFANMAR
Briefly: DnaB intein splicing inhibitors, dose response, biochemical, cell-free fluorescence (AID 449749). The class given is functional.

A further experiment concerns the target T2, Protein RecA (Mycobacterium tuberculosis, UniProt P9WHJ3).
T2 sequence (P9WHJ3 whole entry): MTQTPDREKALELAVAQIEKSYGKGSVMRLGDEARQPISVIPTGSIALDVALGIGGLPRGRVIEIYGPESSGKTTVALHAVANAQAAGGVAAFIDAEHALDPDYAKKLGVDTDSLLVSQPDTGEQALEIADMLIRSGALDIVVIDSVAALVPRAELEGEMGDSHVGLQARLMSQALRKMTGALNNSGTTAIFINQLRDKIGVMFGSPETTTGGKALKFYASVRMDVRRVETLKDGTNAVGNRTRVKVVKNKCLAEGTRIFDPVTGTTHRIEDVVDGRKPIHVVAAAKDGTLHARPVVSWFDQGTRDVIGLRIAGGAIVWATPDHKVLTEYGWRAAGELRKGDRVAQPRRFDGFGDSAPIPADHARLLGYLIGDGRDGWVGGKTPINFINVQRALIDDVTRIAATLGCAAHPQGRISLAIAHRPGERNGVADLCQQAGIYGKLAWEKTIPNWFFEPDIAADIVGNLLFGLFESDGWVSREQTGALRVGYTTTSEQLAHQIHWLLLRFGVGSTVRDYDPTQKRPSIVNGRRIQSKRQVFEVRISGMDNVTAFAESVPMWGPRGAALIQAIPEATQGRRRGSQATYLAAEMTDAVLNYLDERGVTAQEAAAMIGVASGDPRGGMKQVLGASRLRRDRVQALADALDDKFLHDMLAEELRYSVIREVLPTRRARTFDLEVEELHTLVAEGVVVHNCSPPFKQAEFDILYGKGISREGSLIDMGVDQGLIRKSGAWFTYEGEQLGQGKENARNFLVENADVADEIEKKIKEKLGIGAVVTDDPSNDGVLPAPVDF
The experiment in a line: Fluorescence Cell-Free Homogeneous Dose Retest to Identify Inhibitors of RecA-Intein Splicing Activity. [Related pubchem assays (depositor defined):AID2097, AID2223, AID489010, AID492950]. The class given is functional.

Another experiment relates to INS1. Briefly: beta cell apoptosis inhibitors, cytokine rescue, dose response, luminescence, retest (AID 449756).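 Further: cell death triggered by IL-1 beta plus TNF-alpha plus IFN-gamma mixture; protective hits raise ATP signal compared with cytokine alone wells.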 Conditions: Rattus norvegicus. The class given is functional, cell-based.
In the next experiment the test system is Streptococcus. The experiment in a line: Group A Streptococcus viability loss, dose response, counter-screen for streptokinase expression inhibitor project, luminescence, BacTiterGlo (AID 1915).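 Further: potency for reduction of bacterial viability or growth.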 The experiment is classed as functional, organism-based.
Experiment [2] has as its system Streptococcus sp. 'group A'. Briefly: growth inhibition of control SK(-) GAS strain, dose response, counter-screen for streptokinase expression inhibitor project, luminescence, kanamycin, BacTiterGlo, confirmation (AID 1900). The experiment is classed as functional, organism-based.
The next experiment concerns the target T3, Streptokinase A (Streptococcus pyogenes serotype M1, UniProt P10520).
T3 sequence (P10520 whole entry): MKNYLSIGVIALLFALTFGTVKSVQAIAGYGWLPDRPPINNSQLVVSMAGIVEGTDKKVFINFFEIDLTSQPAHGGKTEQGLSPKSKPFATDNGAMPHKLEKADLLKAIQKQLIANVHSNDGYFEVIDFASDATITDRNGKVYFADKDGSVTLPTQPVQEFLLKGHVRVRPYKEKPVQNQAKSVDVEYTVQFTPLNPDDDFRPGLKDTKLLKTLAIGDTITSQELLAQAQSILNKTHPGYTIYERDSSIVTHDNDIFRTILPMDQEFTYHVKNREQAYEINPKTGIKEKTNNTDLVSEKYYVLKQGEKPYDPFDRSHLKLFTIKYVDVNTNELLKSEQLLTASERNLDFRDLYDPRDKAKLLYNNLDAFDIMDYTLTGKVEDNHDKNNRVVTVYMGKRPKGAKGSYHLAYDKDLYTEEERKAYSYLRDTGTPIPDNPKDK
The experiment in a line: S. pyogenes streptokinase expression inhibitors, potency, dose response, plasminogen activation absorbance, OD405 (AID 1914).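 Further: secreted streptokinase activity via plasminogen activation per viability signal from cell pellet.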 The class given is functional, Streptococcus pyogenes M1 GAS.

Experiment [3] in a line: microbe, parasite or virus in culture. The class given is functional. The following applies: Mycobacterium tuberculosis.
Experiment [4] addresses T4, Heat shock factor protein 1 (Mus musculus, UniProt P38532).
T4 sequence (P38532 whole entry): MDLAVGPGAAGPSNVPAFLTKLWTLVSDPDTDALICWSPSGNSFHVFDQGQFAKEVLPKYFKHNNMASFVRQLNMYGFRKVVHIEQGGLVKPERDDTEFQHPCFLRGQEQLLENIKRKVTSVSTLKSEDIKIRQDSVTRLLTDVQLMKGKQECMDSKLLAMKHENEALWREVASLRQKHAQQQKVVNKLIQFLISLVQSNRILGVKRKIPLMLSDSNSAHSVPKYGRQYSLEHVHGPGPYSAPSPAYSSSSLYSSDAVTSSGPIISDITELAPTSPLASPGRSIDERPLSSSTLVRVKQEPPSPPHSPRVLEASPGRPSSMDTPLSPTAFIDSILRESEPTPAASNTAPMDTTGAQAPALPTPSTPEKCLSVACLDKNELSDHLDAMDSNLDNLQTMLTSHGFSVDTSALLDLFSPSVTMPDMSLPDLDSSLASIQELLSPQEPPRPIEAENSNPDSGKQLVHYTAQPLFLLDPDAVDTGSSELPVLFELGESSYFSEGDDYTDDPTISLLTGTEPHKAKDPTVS
The experiment in a line: HSF1 potentiators in luciferase reporter cells, confirmation, cell-based, NIH3T3, luminescence, dose retest (AID 435004).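 Further: stress induced by proteasome inhibitor MG132 added 30 min after compound; luciferase reporter driven by HSF1 response element in NIH3T3 cells; actives raise luminescence as potentiators of the MG132 stress response.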 The class given is functional.

Experiment [5] is described as follows: inhibitors of intracellular T. cruzi replication, confirmation, NIH3T3 host cells, beta-gal luminescence (AID 2044).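 Further: intracellular parasites grown in NIH/3T3 mouse fibroblasts as host cells; luminescent beta-galactosidase reporter signal from transgenic T. cruzi replicating inside host cells; inhibitors lower the luminescence signal.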 The class given is functional, cell-based.
Experiment [6] is described as follows: cytotoxicity toward NIH3T3 fibroblasts, dose response, counter-screen, cell-based, ATP luminescence, mouse fibroblasts (AID 2010).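 Further: cells exposed to compound for about 90 hours before reading.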 The experiment is classed as functional.
Another experiment deals with Cytochrome P450 3A4 (Homo sapiens, UniProt P08684).
In a further experiment the target is T5, Cytochrome P450 1A2 (Homo sapiens, UniProt P05177).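 Further: PubChem cytochrome P450 panel assay, CYP1A2 panel member.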
T5 sequence (P05177 whole entry): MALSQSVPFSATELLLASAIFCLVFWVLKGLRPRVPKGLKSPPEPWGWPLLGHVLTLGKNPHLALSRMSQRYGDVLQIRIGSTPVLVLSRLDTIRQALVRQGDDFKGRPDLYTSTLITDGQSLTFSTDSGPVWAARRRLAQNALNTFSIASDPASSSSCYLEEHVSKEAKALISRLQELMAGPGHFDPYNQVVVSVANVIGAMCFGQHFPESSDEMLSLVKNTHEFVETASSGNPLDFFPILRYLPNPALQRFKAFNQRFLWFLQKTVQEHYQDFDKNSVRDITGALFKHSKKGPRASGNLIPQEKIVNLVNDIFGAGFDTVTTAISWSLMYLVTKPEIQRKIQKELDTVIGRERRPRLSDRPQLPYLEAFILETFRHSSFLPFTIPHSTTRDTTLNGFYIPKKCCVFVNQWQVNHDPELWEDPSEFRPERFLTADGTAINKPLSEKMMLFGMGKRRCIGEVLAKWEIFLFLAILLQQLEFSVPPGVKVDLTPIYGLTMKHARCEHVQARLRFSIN

The target in another experiment is Cytochrome P450 2D6 (Homo sapiens, UniProt P10635).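 Further: CYP2D6 member of a cytochrome P450 panel assay.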

Calls of active or inactive are those of the source. For most assays here, no stated cut-off is given here; in the data, actives have a measured EC50 and inactives only a lower limit.

Chain of Cytochrome P450 2D6 (P10635 whole entry): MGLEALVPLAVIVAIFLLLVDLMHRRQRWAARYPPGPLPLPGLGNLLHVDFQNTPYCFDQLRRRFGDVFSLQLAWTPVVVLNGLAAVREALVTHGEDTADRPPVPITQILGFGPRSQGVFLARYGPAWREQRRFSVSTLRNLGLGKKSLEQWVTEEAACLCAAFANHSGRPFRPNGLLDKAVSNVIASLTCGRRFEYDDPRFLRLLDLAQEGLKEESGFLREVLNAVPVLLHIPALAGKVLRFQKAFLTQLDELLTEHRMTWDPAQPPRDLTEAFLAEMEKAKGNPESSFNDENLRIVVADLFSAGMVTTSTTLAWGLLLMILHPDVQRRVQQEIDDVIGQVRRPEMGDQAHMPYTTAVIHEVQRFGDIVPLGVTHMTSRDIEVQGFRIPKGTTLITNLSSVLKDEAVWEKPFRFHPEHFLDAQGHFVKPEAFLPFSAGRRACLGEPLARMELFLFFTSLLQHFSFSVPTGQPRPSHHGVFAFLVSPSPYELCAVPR
Chain of Cytochrome P450 3A4 (P08684 whole entry): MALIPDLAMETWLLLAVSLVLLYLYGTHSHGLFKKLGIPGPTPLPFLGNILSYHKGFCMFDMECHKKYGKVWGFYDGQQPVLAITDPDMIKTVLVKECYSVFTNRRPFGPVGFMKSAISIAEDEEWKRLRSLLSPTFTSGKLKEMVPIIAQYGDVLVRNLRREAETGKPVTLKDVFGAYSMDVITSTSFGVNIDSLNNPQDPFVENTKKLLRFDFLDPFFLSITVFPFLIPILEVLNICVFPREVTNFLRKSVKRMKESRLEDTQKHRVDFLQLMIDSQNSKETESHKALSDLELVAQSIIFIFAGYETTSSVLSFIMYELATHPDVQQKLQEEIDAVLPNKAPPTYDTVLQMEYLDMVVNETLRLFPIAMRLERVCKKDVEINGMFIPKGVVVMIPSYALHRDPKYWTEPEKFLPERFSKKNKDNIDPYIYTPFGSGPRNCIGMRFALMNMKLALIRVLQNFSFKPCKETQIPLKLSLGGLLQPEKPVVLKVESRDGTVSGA

As to `Cc1ccc(C2C(C#N)=C(N)Oc3[nH]nc(-c4ccccc4)c32)o1` (centres undefined), the AC50 in [1] is 4.75 µM (active). The EC50 on Protein RecA was 19.3 µM (active).

Take `C/C(=N/Nc1nc(-c2ccccc2)cc(-c2ccc(F)cc2)n1)c1cccc(N)c1`: the AC50 with INS1 is 3.64 µM (active).

As for `C/C(CC(=O)Nc1ccccn1)=N\NC(=O)c1ccncc1`, in experiment [1], the half-maximal activity concentration (AC50) was 2.86 µM (active). Besides, the EC50 at Protein RecA is 1.94 µM (active).

With `O=C(C/C=N\OCc1c(Cl)cccc1Cl)Oc1ccc(Cl)cc1Cl`, the AC50 in [1] was 21.8 µM (active). The EC50 at Protein RecA was 7.56 µM (active).

Take `COc1ccc(OC)c(-c2[nH]nc3c2C(c2ccco2)C(C#N)=C(N)O3)c1` (centres undefined): the AC50 in experiment [1] is 185 µM (active). In addition, the EC50 on Protein RecA was 3.22 µM (active).

Turning to `COc1cccc(CN2CCN(Cc3ccc(C#CC(C)(C)O)s3)CC2CCO)c1` (centres undefined), in experiment [1], the AC50 is > 380 µM (inactive). Moreover, the EC50 on Protein RecA is > 380 µM (inactive).

`CCCCCCCCCCCCC(NC(C)=O)(C(=O)OCC)C(=O)OCC`: the EC50 with Streptococcus was 8.56 µM (active); in experiment [2], 6.45 µM (active); on Streptokinase A, > 150 µM (not active).

Regarding `O=C(NNC(=S)NC(=O)c1ccco1)c1ccc(NC(=O)c2ccccc2)cc1`, the EC50 is 9.14 µM (active) with Streptococcus, 0.973 µM (active) in experiment [2] and > 150 µM (not active) on Streptokinase A.

For the compound `CC1=NC2(O)c3ccccc3C(=O)C2(O)/C1=C(/O)OC(C)C` (centres undefined), in experiment [1], the AC50 was 21.2 µM (active). Also, the EC50 at Protein RecA is 14.7 µM (active).

In the case of `COc1ccccc1NC(=O)Nc1nc(CC(=O)Nc2cc(F)ccc2F)cs1`, the EC50 with Streptococcus is 30.9 µM (active); in experiment [2], 11.5 µM (active); on Streptokinase A it was > 150 µM (not active).

Consider `COCCn1nnnc1C(c1cc2cc(OC)ccc2nc1O)N1CCC(Cc2ccccc2)CC1` (centres undefined), for which the CC50 in experiment [3] was > 40 µM (active).

Take `O=C1N=C(Nc2ccccc2)S/C1=C\C=C\c1ccco1`: the CC50 in experiment [3] was 39.3 µM (active).

`Cc1oc(C(C)(C)C)cc1C(=O)N1CCN(C(c2ccccc2)c2ccccc2)CC1`: the EC50 in the experiment on Streptococcus was 16.4 µM (active); in experiment [2] it was 2.64 µM (active); at Streptokinase A, 17.6 µM (active).

For `CC1(C)S[C@@H]2[C@H](NC(=O)COc3ccccc3)C(=O)N2C1C(=O)OCc1cc2ccccc2n1S(=O)(=O)c1ccccc1` (some centres undefined), the results for the EC50 (in the experiment with Streptococcus; in experiment [2]; at Streptokinase A) were 39.9 µM (active), 6.32 µM (active) and 23.6 µM (active), respectively.

On to `O=[N+]([O-])c1cc(Cl)c(O)c(-[n+]2c(-c3ccccc3)cc(-c3ccccc3)cc2-c2ccccc2)c1.[O-][Cl+3]([O-])([O-])[O-]`, for which the CC50 in experiment [3] is > 40 µM (active).

Consider `CCOC(=O)c1nnc(-c2ccccc2)nc1Sc1ccccc1Cl`, for which, in [1], the AC50 is 2.36 µM (active). Further, the results for the EC50 (in experiment [4]; at Protein RecA) were 8.48 µM (active) and 0.686 µM (active), respectively. In addition, in experiment [3], the CC50 was > 40 µM (active).

Regarding `CCCn1c(=O)[nH]c(=O)c2c1nc(-c1ccc(OC(F)F)c(OC)c1)n2CCOC`, the AC50 in experiment [1] was > 380 µM (inactive). Further, the EC50 on Protein RecA is > 380 µM (inactive).

Turning to `CC12CCC(C(=O)Nc3cccc(Cl)c3Cl)([C@H](Br)C1=O)C2(C)C` (some centres undefined), the EC50 (in the experiment with Streptococcus; in experiment [2]; on Streptokinase A) was > 150 µM (not active) throughout.

Take `CCn1c2ccccc2c2cc(CN3CCN(Cc4cc(OC)ccc4O)CC3)ccc21`: the CC50 in experiment [3] is > 40 µM (active). Also, the EC50 in experiment [5] is 1.21 µM (active); in experiment [6], > 60 µM (not active).

On to `COc1ccc(-n2c(=S)[nH]c3cc(C(=O)Nc4ccccc4OC)ccc3c2=O)cc1`, for which the concentration at half-maximal activity (AC50) with INS1 is 6.62 µM (active).

As for `COCC/N=C1/Sc2nc3ccc(C)cc3cc2CN1Cc1ccco1`, in experiment [3], the CC50 was > 40 µM (active).

In the case of `CCCCCCCCSc1nnc(CSc2nc3nc(C)cc(C)n3n2)o1`, the AC50 with INS1 was 14.9 µM (active); at Cytochrome P450 3A4 it was 35.5 µM (inconclusive); on Cytochrome P450 1A2, 31.6 µM (inconclusive); on Cytochrome P450 2D6 it was 28.2 µM (inconclusive).
